Results published in the NIST ThermoML archive (doi:10.1021/acs.jced.7b00712).
± gives the expanded uncertainty stated by the source.

Settings: Brillouin light scattering

CC(C)CC(C)(C)C [2,2,4-trimethylpentane]
Settings | speed of sound [m/s]
294.06 K, 100 kPa, Liquid | 1099.7 ± 14
294.37 K, 3000 kPa, Liquid | 1127.4 ± 15
294.65 K, 6000 kPa, Liquid | 1147.6 ± 15
294.84 K, 10000 kPa, Liquid | 1176.1 ± 15
294.97 K, 12000 kPa, Liquid | 1181.7 ± 15
304.03 K, 100 kPa, Liquid | 1058.5 ± 14
304.16 K, 3000 kPa, Liquid | 1088.2 ± 14
304.23 K, 6000 kPa, Liquid | 1109.6 ± 14
304.27 K, 10000 kPa, Liquid | 1136.9 ± 15
304.27 K, 12000 kPa, Liquid | 1147.7 ± 15
313.81 K, 100 kPa, Liquid | 1017.3 ± 13
313.82 K, 10000 kPa, Liquid | 1100.1 ± 14
313.85 K, 12000 kPa, Liquid | 1110.8 ± 14
313.92 K, 3000 kPa, Liquid | 1037.2 ± 14
313.96 K, 6000 kPa, Liquid | 1065.2 ± 14
323.56 K, 100 kPa, Liquid | 978.2 ± 13
323.61 K, 3000 kPa, Liquid | 999.1 ± 13
323.65 K, 6000 kPa, Liquid | 1027.4 ± 13
323.67 K, 10000 kPa, Liquid | 1060.4 ± 14
323.71 K, 12000 kPa, Liquid | 1075.4 ± 14
333.4 K, 12000 kPa, Liquid | 1041.9 ± 14
333.42 K, 100 kPa, Liquid | 938.5 ± 12
333.46 K, 10000 kPa, Liquid | 1028 ± 13
333.48 K, 3000 kPa, Liquid | 968 ± 13
333.5 K, 6000 kPa, Liquid | 996 ± 13
342.88 K, 100 kPa, Liquid | 898 ± 12
343.07 K, 3000 kPa, Liquid | 927.9 ± 12
343.16 K, 6000 kPa, Liquid | 954.8 ± 12
343.21 K, 12000 kPa, Liquid | 1008.5 ± 13
343.22 K, 10000 kPa, Liquid | 990.3 ± 13
352.86 K, 100 kPa, Liquid | 858.9 ± 11
352.89 K, 3000 kPa, Liquid | 891.7 ± 12
352.94 K, 6000 kPa, Liquid | 921.1 ± 12
353.01 K, 10000 kPa, Liquid | 961.7 ± 12
353.04 K, 12000 kPa, Liquid | 975.5 ± 13
363.39 K, 3000 kPa, Liquid | 852.2 ± 11
363.49 K, 6000 kPa, Liquid | 883.5 ± 12
363.54 K, 10000 kPa, Liquid | 925.7 ± 12
363.55 K, 100 kPa, Liquid | 821.9 ± 11
363.58 K, 12000 kPa, Liquid | 943.8 ± 12
373.04 K, 3000 kPa, Liquid | 821.1 ± 11
373.27 K, 6000 kPa, Liquid | 843.9 ± 11
373.41 K, 10000 kPa, Liquid | 888.2 ± 12
373.49 K, 12000 kPa, Liquid | 908.6 ± 12
383.18 K, 3000 kPa, Liquid | 783.2 ± 10
383.8 K, 6000 kPa, Liquid | 813.8 ± 11
384.11 K, 10000 kPa, Liquid | 855.6 ± 11
384.26 K, 12000 kPa, Liquid | 876.5 ± 11
393.83 K, 3000 kPa, Liquid | 742.3 ± 9.7
394 K, 6000 kPa, Liquid | 782.2 ± 10
394.15 K, 10000 kPa, Liquid | 825.8 ± 11
394.19 K, 12000 kPa, Liquid | 848.1 ± 11
402.16 K, 3000 kPa, Liquid | 716.5 ± 9.4
402.48 K, 6000 kPa, Liquid | 750.9 ± 9.8
402.64 K, 10000 kPa, Liquid | 800.2 ± 10
402.78 K, 12000 kPa, Liquid | 819.5 ± 11
412.57 K, 3000 kPa, Liquid | 677.6 ± 8.9
412.84 K, 6000 kPa, Liquid | 719.3 ± 9.4
413.07 K, 10000 kPa, Liquid | 766.7 ± 10
413.22 K, 12000 kPa, Liquid | 791.3 ± 10
423.95 K, 3000 kPa, Liquid | 636.8 ± 8.4
424.32 K, 6000 kPa, Liquid | 678.1 ± 8.9
424.49 K, 10000 kPa, Liquid | 732.1 ± 9.6
424.59 K, 12000 kPa, Liquid | 756.7 ± 9.9
434.51 K, 3000 kPa, Liquid | 602.6 ± 7.9
434.94 K, 6000 kPa, Liquid | 647.4 ± 8.5
435.26 K, 10000 kPa, Liquid | 701 ± 9.2
435.36 K, 12000 kPa, Liquid | 726.5 ± 9.5
443.7 K, 3000 kPa, Liquid | 569.7 ± 7.5
444 K, 6000 kPa, Liquid | 619.6 ± 8.2
444.22 K, 10000 kPa, Liquid | 677.1 ± 8.9
444.36 K, 12000 kPa, Liquid | 700.3 ± 9.2
452.94 K, 3000 kPa, Liquid | 538.4 ± 7.1
453.22 K, 6000 kPa, Liquid | 588.3 ± 7.8
454.37 K, 10000 kPa, Liquid | 648.8 ± 8.5
455.24 K, 12000 kPa, Liquid | 671.1 ± 8.8
462.54 K, 3000 kPa, Liquid | 502.1 ± 6.7
463.04 K, 6000 kPa, Liquid | 558.9 ± 7.4
463.43 K, 10000 kPa, Liquid | 622.7 ± 8.2
463.72 K, 12000 kPa, Liquid | 651.6 ± 8.6
472.45 K, 3000 kPa, Liquid | 464.2 ± 6.3
472.86 K, 6000 kPa, Liquid | 530.7 ± 7.1
473.22 K, 10000 kPa, Liquid | 596.3 ± 7.9
473.48 K, 12000 kPa, Liquid | 627.7 ± 8.3
483.15 K, 3000 kPa, Liquid | 423.5 ± 5.9
483.63 K, 6000 kPa, Liquid | 496.7 ± 6.7
484.05 K, 10000 kPa, Liquid | 569.9 ± 7.5
484.3 K, 12000 kPa, Liquid | 598.4 ± 7.9
493.12 K, 3000 kPa, Liquid | 386.4 ± 5.5
493.56 K, 6000 kPa, Liquid | 464.9 ± 6.3
494.09 K, 10000 kPa, Liquid | 542.2 ± 7.2
494.42 K, 12000 kPa, Liquid | 576.5 ± 7.6
502.8 K, 3000 kPa, Liquid | 350.1 ± 5.1
503.17 K, 6000 kPa, Liquid | 435.4 ± 6
503.79 K, 10000 kPa, Liquid | 516.1 ± 6.9
504.09 K, 12000 kPa, Liquid | 550.4 ± 7.3
512.41 K, 3000 kPa, Liquid | 311.4 ± 4.8
513.04 K, 6000 kPa, Liquid | 404 ± 5.7
513.78 K, 10000 kPa, Liquid | 491.8 ± 6.6
514.01 K, 12000 kPa, Liquid | 526.6 ± 7
523.31 K, 3000 kPa, Liquid | 264.5 ± 4.5
523.97 K, 6000 kPa, Liquid | 371.4 ± 5.4
524.59 K, 10000 kPa, Liquid | 463 ± 6.3
524.7 K, 12000 kPa, Liquid | 501.3 ± 6.7
543.28 K, 3000 kPa, Fluid (supercritical or subcritical phases) | 159 ± 6.4
543.47 K, 4000 kPa, Fluid (supercritical or subcritical phases) | 233.1 ± 5.8
543.63 K, 5000 kPa, Fluid (supercritical or subcritical phases) | 282.2 ± 4.9
